Test results: paper PMC10403075, “Short hydrocarbon stapled ApoC2-mimetic peptides activate lipoprotein lipase and lower plasma triglycerides in mice” (Frontiers in Cardiovascular Medicine, 2023)
Read-outs that look alike come from different tables or passages of the source. Residues, ends and D or L forms follow the SMILES beside them.

What was measured:
LPL from bovine milk [1] = molecular target: T1, LPL from bovine milk (Bos taurus, UniProt P11151); assay: In vitro LPL activity assay (NEFA generation, ApoC2-deficient plasma substrate); format: biochemical
T1 construct: LPL from bovine milk (Sigma-Aldrich); purchased Sigma-Aldrich; host or cells: bovine milk (natural source)
T1 sequence (P11151 29-478): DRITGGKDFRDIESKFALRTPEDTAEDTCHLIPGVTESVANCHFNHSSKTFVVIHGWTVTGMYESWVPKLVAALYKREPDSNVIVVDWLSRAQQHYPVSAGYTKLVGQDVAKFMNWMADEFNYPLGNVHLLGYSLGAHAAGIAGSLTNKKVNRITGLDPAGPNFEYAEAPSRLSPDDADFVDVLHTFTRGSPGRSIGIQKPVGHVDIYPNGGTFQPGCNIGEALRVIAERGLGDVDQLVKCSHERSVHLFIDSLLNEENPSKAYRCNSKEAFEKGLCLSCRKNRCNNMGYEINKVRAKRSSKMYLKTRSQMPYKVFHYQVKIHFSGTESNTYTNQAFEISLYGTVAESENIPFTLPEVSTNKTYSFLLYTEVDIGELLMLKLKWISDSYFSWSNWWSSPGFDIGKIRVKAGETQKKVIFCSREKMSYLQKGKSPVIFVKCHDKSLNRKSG
Protocol: (§1) LPL activity was determined by measuring the generation of non-esterified fatty acids (NEFA). In a 96-well plate, 0–2 µM of an ApoC2 mimetic peptide, 0.83 nM of LPL from bovine milk (Sigma-Aldrich), ApoC2-deficient ethylenediaminetetraacetic acid (EDTA)-plasma (diluted with PBS to a final TG concentration of 0.67 mg/dl), 2 IU/ml heparin, 0.2% fatty acids free bovine serum albumin (BSA) (ICN Biomedicals), and PBS (Life Technologies) were combined in a final reaction volume of 50 μl. The reaction mixture was pre-incubated on ice for 30 min and incubated at 37°C for 1 h. NEFA were measured with a coupled enzyme reaction (Wako Diagnostics) in a Synergy H1 microplate reader (BioTek, USA).

human LPL = molecular target: T2, human LPL (Homo sapiens, UniProt P06858); assay: Isothermal titration calorimetry LPL activity assay in pooled human plasma; format: biochemical; conditions: normolipidemic pooled human EDTA-plasma nearly undiluted, 1 nM human LPL injections, 25°C, initial rate, on top of endogenous activators, triplicates
T2 sequence (P06858 28-475): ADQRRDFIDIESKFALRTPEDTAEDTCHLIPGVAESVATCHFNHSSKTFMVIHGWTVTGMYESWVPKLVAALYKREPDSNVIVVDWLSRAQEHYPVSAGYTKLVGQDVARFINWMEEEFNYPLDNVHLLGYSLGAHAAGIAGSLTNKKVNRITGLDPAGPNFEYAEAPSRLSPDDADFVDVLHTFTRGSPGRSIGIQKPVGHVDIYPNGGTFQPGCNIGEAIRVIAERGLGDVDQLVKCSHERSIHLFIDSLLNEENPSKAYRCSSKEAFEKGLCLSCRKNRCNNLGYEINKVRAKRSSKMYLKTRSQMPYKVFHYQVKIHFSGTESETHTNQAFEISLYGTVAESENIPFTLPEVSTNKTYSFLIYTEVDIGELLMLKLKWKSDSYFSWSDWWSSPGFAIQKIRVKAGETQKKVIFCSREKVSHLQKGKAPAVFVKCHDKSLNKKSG
Protocol: Isothermal titration calorimetry (ITC) measurements, which depends upon the initial rate of reaction, were performed to assess peptide activation of LPL in nearly undiluted human plasma as previously described ([22], [23]). Peptides in 20 mM TRIS, pH 8.2 at the indicated concentrations were added to a normolipidemic EDTA-plasma pool. The reaction was initiated by three sequential injections of 1 nM human LPL. The heat of the reaction was monitored with the iTC200 calorimeter (GE Healthcare, USA) and the initial reaction rates at 25°C were converted into relative activity units.

[2] = Circular dichroism spectroscopy; format: physicochemical; conditions: CD 190-250 nm, 0.1 cm cell, calculated from spectrum
Protocol: Circular dichroism (CD) spectra were acquired on a Chirascan Q100 spectrometer. CD spectra were recorded in the190–250 nm range, using a 0.1 cm quartz cell and analyzed with Bettsele® on-line software ([24]).

trypsin = assay: Peptide proteolysis resistance, trypsin; format: in vitro ADME; conditions: peptide 0.1 mM, 10 ug/ml trypsin, 20 mM ammonium bicarbonate pH 8.2, 37°C, MALDI-TOF with internal standards, first time point 3 h, triplicates
Protocol: (§2) Peptides (0.1 mM) were incubated at 37°C in 20 mM ammonium bicarbonate buffer at pH 8.2, with 10 ug/ml trypsin or […] Proteinase K. To test resistance to Pepsin, peptides (0.1 mM) were incubated with Pepsin (3 mg/ml) in 0.02M acetate buffer (pH 2). The amount of intact peptide was monitored over time by Matrix-assisted laser desorption/ionization time-of-flight (MALDI-TOF) on a Bruker Autoflex III instrument (Bruker Optics, Inc., USA). Internal standards (Bombesin, ACTH (1–17), ACTH (18–39) and Insulin) were used to quantify the relative amount of peptide in each sample.

Proteinase K = Proteinase K (Parengyodontium album, UniProt P06873); format: in vitro ADME
Proteinase K, sequence (P06873 106-384): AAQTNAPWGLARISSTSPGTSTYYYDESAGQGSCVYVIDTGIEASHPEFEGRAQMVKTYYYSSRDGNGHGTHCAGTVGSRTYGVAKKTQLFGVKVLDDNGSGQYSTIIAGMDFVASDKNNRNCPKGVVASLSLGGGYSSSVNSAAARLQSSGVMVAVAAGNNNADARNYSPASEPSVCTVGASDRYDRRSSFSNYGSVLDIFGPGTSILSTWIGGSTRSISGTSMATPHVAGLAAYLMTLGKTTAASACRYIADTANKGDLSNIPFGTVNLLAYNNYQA
Protocol: as §2

Pepsin = assay: Peptide proteolysis resistance, pepsin; format: in vitro ADME; conditions: peptide 0.1 mM, pepsin 3 mg/ml, 0.02M acetate buffer pH 2, 1 h, MALDI-TOF with internal standards, triplicates
Protocol: as §2

LPL from bovine milk [3] = molecular target: T1, LPL from bovine milk; assay: In vitro LPL activation assay after pepsin treatment; format: biochemical; conditions: 1 h pepsin at pH 2, then pH neutralised; compared with untreated peptide, area-under-the-curve, triplicates
Protocol: as §1, §2
Figure 4 Peptide proteolysis resistance. […]

Apoc2^h/h mice [4] = assay: Plasma lipids in ApoC2-hypomorphic mice after peptide injection; format: in vivo, mouse; conditions: single IP 1 umole/kg, n = 4
Protocol: ApoC2–hypomorphic mice (Apoc2^h/h) ([25]) and human ApoC3-transgenic (hAPOC3-tg) mice ([26]) were fed a regular rodent chow diet (NIH-31 chow diet: Zeigler Brothers Inc.). Peptides dissolved in 20 mM TRIS (pH 8.2) or vehicle control were injected intraperitoneally or intravenously at the indicated concentrations. Blood samples were collected from the retro-orbital sinus with a heparinized capillary tube. Whole blood was centrifuged at 1,000 g for 20 min at 4°C to obtain plasma. All animal procedures were approved by the National Heart, Lung, and Blood Institute Animal Care and Use Committee (protocol #H-0050).

Apoc2^h/h mice [5] = conditions: ApoC2 hypomorphic mice, single intravenous injection, within a few hours; cited from earlier work
Source text: (§3) We recently developed a bi-helical ApoC2 mimetic peptide called D6PV that contains 41 amino acids ([16]). ApoC2 mimetic peptides could potentially be used as a treatment for pancreatitis in patients with genetic APOC2 deficiency and for the prevention of cardiovascular disease in patients with moderate elevations in plasma triglycerides ([1]). […] Except for one amino acid substitution, the secon ...

hAPOC3-tg mice = conditions: ApoC3 transgenic mice; cited from earlier work
Source text: as §3

[6] = DMPC vesicle clearance (solubilization) assay; format: physicochemical; conditions: peptide 0-100 µM in 20 mM TRIS pH 8.2, DMPC vesicles 0.5 mg/ml in PBS, absorbance 660 nm, 1 h, 24°C
Protocol: Dimyristoyl Phosphatidyl Choline (DMPC) (Avanti 850345C) vesicles were made by sonication (0.5 mg/ml) in phosphate buffer saline (PBS). Peptides (0, 25, 50 and 100 µM) in 20 mM TRIS, pH 8.2 were added to DMPC vesicles (0.5 mg/ml) prepared by sonication in PBS and turbidity was monitored in a Victor^3 plate reader (Perkin Elmer, USA) by monitoring absorbance at 660 nm for 1 h at 24°C. Samples were shaken at 300 RPM. Absorbance over time was plotted and areas-under-the-curve (AOC) were calculated. PBS was used as a negative control sample and Triton X-100 at a final concentration of 1% (w/v) was used as positive control.

SMILES	EC50 (LPL from bovine milk [1])	LPL activity by isothermal titration calorimetry (human LPL)	alpha-helical secondary structure by CD [2]	intact full-length peptide after trypsin incubation (trypsin)	intact full-length peptide after Proteinase K incubation (Proteinase K; pH 8.2)	intact full-length peptide after pepsin incubation (Pepsin)	ability to activate LPL after pepsin treatment (LPL from bovine milk [3])	reduction in plasma triglycerides (Apoc2^h/h mice [4]; 3 h after injection)	plasma cholesterol (Apoc2^h/h mice [4])	plasma TG (Apoc2^h/h mice [5])	plasma TG (hAPOC3-tg mice)	in vitro LPL activation, dose response (result in words) (LPL from bovine milk [1]; 0-2 µM peptide, bovine milk LPL, ApoC2-deficient plasma substrate, 37°C 1 h, NEFA read-out, triplicates)	DMPC vesicle solubilization [6]	intact full-length peptide after Proteinase K incubation (Proteinase K; peptide 0.1 mM, 16 ug/kg Proteinase K, 20 mM ammonium bicarbonate pH 8.2, 37°C, MALDI-TOF with internal standards, first time point 3 h, triplicates)
CC[C@H](C)[C@H](NC(=O)CNC(=O)[C@@H](NC(=O)[C@H](Cc1ccc(O)cc1)NC(=O)[C@@H](NC(=O)[C@H](CO)NC(=O)[C@@H](NC(=O)[C@H](C)NC(=O)[C@@H]1CCCN1C(=O)[C@@H](NC(=O)[C@H](Cc1ccccc1)NC(=O)[C@H](CCCCN)NC(=O)[C@H](CCC(=O)O)NC(=O)[C@H](Cc1ccc(O)cc1)NC(=O)[C@H](CC(C)C)NC(=O)[C@H](CC(=O)O)NC(=O)[C@H](CCCNC(=N)N)NC(=O)[C@H](CC(C)C)NC(=O)[C@H](CCCCN)NC(=O)[C@H](CCC(=O)O)NC(=O)[C@H](Cc1ccccc1)NC(=O)[C@@H](NC(=O)[C@H](CCC(=O)O)NC(=O)[C@H](CCCCN)NC(=O)[C@H](CC(C)C)NC(=O)[C@H](Cc1ccc(O)cc1)NC(=O)[C@@H](N)CC(=O)O)C(C)C)[C@@H](C)O)C(C)C)[C@@H](C)O)[C@@H](C)O)C(=O)N[C@@H](Cc1ccccc1)C(=O)N[C@H](C(=O)N[C@@H](CC(=O)O)C(=O)N[C@@H](CCC(N)=O)C(=O)N[C@H](C(=O)N[C@@H](CC(C)C)C(=O)N[C@@H](CO)C(=O)N[C@H](C(=O)N[C@@H](CC(C)C)C(=O)N[C@@H](CCCCN)C(=O)NCC(=O)N[C@@H](CCC(=O)O)C(=O)N[C@@H](CCC(=O)O)C(=O)O)C(C)C)C(C)C)[C@@H](C)O [D6PV, reference compound] (H-DYLKEVFEKLRDLYEKFTPAVSTYTGIFTDQVLSVLKGEE-OH; N-terminus assumed)	107 nM	doubled the activity of LPL	42%	essentially no intact peptide was detected	essentially no intact peptide was detected	No intact peptide was observed	almost completely inactive	> 90%	lowered plasma cholesterol	markedly lowered TG	lowered TG	–	–	–
CCCC[C@H](NC(=O)[C@H](C)NC(C)=O)C(=O)N[C@]1(C)CCCCCCC=CCCCC2(CCCC=CCCCCCC[C@@](C)(C(=O)N[C@@H](CCCCN)C(=O)N(C)CC(=O)N[C@H](CCC(=O)O)C(=O)N[C@H](CCC(=O)O)C(=O)O)NC(=O)[C@H](C(C)C)NC(=O)[C@H](CO)NC(=O)[C@H](CC(C)C)NC(=O)[C@H](C(C)C)NC(=O)[C@H](CCC(N)=O)NC(=O)[C@H](CC(=O)O)NC2=O)NC(=O)[C@H](Cc2ccccc2)NC(=O)[C@H]([C@@H](C)CC)NC(=O)CNC(=O)[C@H]([C@@H](C)O)NC(=O)[C@H](Cc2ccc(O)cc2)NC(=O)[C@H]([C@@H](C)O)NC1=O (stereo partly drawn) [SP2]	–	–	46%	resistant to both proteases	–	resistant to proteolysis	fully active	–	–	–	–	slightly more potent than SP1	most effective in solubilizing DMPC vesicles	resistant to both proteases
